Laboratory results from patent publication US9433621B2, “Substituted pyridine and pyrimidine derivatives and their use in treating viral infections” (Merck Sharp & Dohme Corp., priority 2010, dated 2016).

Each molecule was assayed on HCV replicon (assay: Cell-Based HCV Replicon Assay). Conditions: Hepatitis C virus, 72 h, read-out: EC90 (uM) range.
In short: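 EC50 and EC90 taken from sigmoid fits of ΔCT (5B minus GAPDH) as the concentrations raising ΔCT by 1 and 3.2 over baseline, via multiplex real-time RT-PCR on lysates after 3 days. Replicon cells at 5000/well; 10 two-fold dilutions from 25–1 μM, 0.5% DMSO, 10% FBS.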

In the case of `Cc1nccc2sc(-c3cnc(N[C@H](C)C4CCC4)nc3N[C@@H]3C[C@H](CO)[C@@H](O)[C@H]3O)nc12` [Example 4915], the EC90 is reported as > 1 µM.

Same assay, conditions: Hepatitis C virus, 72 h; Table IV; replicon cells, day 3, real time PCR; EC90 = concentration for ΔCT=3.2 over baseline; read-out: EC90

First: Cc1cc2sc(-c3c(C)nc(NCc4c(F)cc(F)cc4F)nc3N[C@@H]3C[C@H](CO)[C@@H](O)[C@H]3O)nc2c(C)n1 [Example 3438]
Second: Cc1nc(NCc2c(F)cc(F)cc2F)nc(N[C@@H]2C[C@H](CS(C)(=O)=O)[C@@H](O)[C@H]2O)c1-c1nc2c(C3CC3)nccc2s1 [Example 3563]
The EC90 of the first is 3.7-fold higher: 0.011 µM for the first, 0.003 µM for the second.

First: Cc1ccc([C@@H](C)Nc2nc(C)c(-c3nc4c(C)nccc4s3)c(N[C@@H]3C[C@H](CO)[C@@H](O)[C@@]3(C)O)n2)cc1 [compound 3815]
Second: COC[C@@H](C)Nc1nc(C)c(-c2nc3c(C)nccc3s2)c(N[C@@H]2C[C@H](C(C)(C)O)[C@@H](O)[C@H]2O)n1 [Example 3137]
The EC90 of the first is 3.9-fold lower: 0.03 µM for the first, 0.118 µM for the second.

Compared with `Cc1nc(NCc2c(F)cccc2F)nc(N[C@@H]2C[C@H](CS(=O)(=O)c3cc(F)cc(F)c3)[C@@H](O)[C@H]2O)c1-c1nc2c(C)nccc2s1` [Example 3754], `Cc1nc(NCC2CC2)nc(N[C@@H]2C[C@H](CC(C)(C)O)[C@@H](O)[C@H]2O)c1-c1nc2c(C)nccc2s1` [Example 3552] is 1.6-fold higher in EC90: 0.015 µM for the first, 0.024 µM for the second.

Same assay, conditions: Hepatitis C virus, 72 h; Table V, class codes; replicon cells, day 3, real time PCR; EC90 = concentration for ΔCT=3.2 over baseline; read-out: EC90 (uM) range

`CO[C@@H]1[C@@H](CO)C[C@@H](Nc2nc(NCC3CC3)nc(C)c2-c2nc3c(C)nccc3s2)[C@@H]1O` [Example 4903] and `CO[C@@H]1[C@@H](CO)C[C@@H](Nc2nc(NCC(F)(F)F)nc(C)c2-c2nc3c(C)nccc3s2)[C@@H]1O` [Example 4905] cannot be ordered by EC90: < 0.5 µM for the first, < 0.5 µM for the second.

`Cc1nc(NCC2CC2)nc(N[C@@H]2C[C@H](C(=O)NC(C)(C)C)[C@@H](O)[C@H]2O)c1-c1nc2c(C3CC3)nccc2s1` [Example 4931] and `Cc1ccccc1[C@@H](C)Nc1nc(C)c(-c2nc3c(C4CC4)nccc3s2)c(N[C@@H]2C[C@H](CO)[C@@H](O)[C@H]2O)n1` [Example 4934] cannot be ordered by EC90: < 0.5 µM for the first, < 0.5 µM for the second.

`COCCNc1nc(C)c(-c2nc3c(C)nccc3s2)c(N[C@@H]2C[C@H](C(C)(C)F)[C@@H](O)[C@H]2O)n1` [Example 4954] and `Cc1cc2sc(-c3c(C)nc(NCc4c(F)cccc4F)nc3N[C@@H]3C[C@H](CO)[C@@H](O)[C@H]3O)nc2cn1` [Example 4908] cannot be ordered by EC90: < 0.5 µM for the first, < 0.5 µM for the second.

Same assay, conditions: Hepatitis C virus; HCV Replicon assay, EC90 given as numeric bound, Table VI; read-out: EC90

In the case of `Cc1nc(NC2(CS(=O)(=O)C(C)(C)C)CCCCC2)nc(N[C@@H]2C[C@H](C(C)(C)O)[C@@H](O)[C@H]2O)c1-c1nc2c(C)nccc2s1` [Example 5197], the EC90 is reported as > 1 µM.

Same assay, conditions: Hepatitis C virus; HCV Replicon assay, EC90 range, Table VI; read-out: EC90

`CO[C@@H]1[C@H](OC)[C@@H](C(C)(C)O)C[C@H]1Nc1nc(NCC2CC2)nc(C)c1-c1nc2c(C)nccc2s1` [Example 5265] and `COC[C@@H](C)Nc1nc(C)c(-c2nc3c(C)nccc3s2)c(N[C@@H]2C[C@H](C(C)(C)O)[C@@H](OC)[C@H]2OC)n1` [Example 5263] cannot be ordered by EC90: < 0.5 µM for the first, < 0.5 µM for the second.

`CNS(=O)(=O)C[C@H]1C[C@@H](Nc2nc(NCC3CC3)nc(C)c2-c2nc3c(C)nccc3s2)[C@H](O)[C@@H]1O` [Example 5025] and `COc1ccc(S(=O)(=O)C[C@H]2C[C@@H](Nc3nc(NCC4CC4)nc(C)c3-c3nc4c(C)nccc4s3)[C@H](O)[C@@H]2O)cc1F` [Example 5013] cannot be ordered by EC90: < 0.5 µM for the first, < 0.5 µM for the second.

`Cc1nc(NCc2c(F)cccc2F)nc(NC2(CO)CCCC2)c1-c1nc2c(C)nccc2s1` [Example 5117] and `COCCNc1nc(C)c(-c2nc3c(C)nccc3s2)c(NC2(CO)CCCCC2)n1` [Example 5200] cannot be ordered by EC90: < 0.5 µM for the first, < 0.5 µM for the second.

`Cc1nc(NCC2(O)CCCC2)nc(N[C@@H]2C[C@H](CS(=O)(=O)c3cc(F)cc(F)c3)[C@@H](O)[C@H]2O)c1-c1nc2c(C)nccc2s1` [Example 5119] and `Cc1nc(NC2CC2)nc(N[C@@H]2C[C@H](CS(=O)(=O)c3ccc(F)c(F)c3)[C@@H](O)[C@H]2O)c1-c1nc2c(C)nccc2s1` [Example 5004] cannot be ordered by EC90: < 0.5 µM for the first, < 0.5 µM for the second.

`Cc1nc(NCC2CC(F)(F)C2)nc(N[C@@H]2C[C@H](C(C)(F)F)[C@@H](O)[C@H]2O)c1-c1nc2c(C3CC3)nccc2s1` [Example 5177] and `Cc1nc(NCC2CC(F)(F)C2)nc(N[C@@H]2C[C@H](C(F)F)[C@@H](O)[C@H]2O)c1-c1nc2c(C3CC3)nccc2s1` [Example 5182] cannot be ordered by EC90: < 0.5 µM for the first, < 0.5 µM for the second.

`CSCCNc1nc(C)c(-c2nc3c(C)nccc3s2)c(N[C@@H]2C[C@H](C(C)(C)O)[C@@H](O)[C@H]2O)n1` [Example 5241] and `CCSCCNc1nc(C)c(-c2nc3c(C)nccc3s2)c(N[C@@H]2C[C@H](C(C)(C)OC)[C@@H](O)[C@H]2O)n1` [Example 5278] cannot be ordered by EC90: < 0.5 µM for the first, < 0.5 µM for the second.

`Cc1nc(NCc2c(F)cc(F)cc2F)nc(N[C@@H]2C[C@H](C(C)(C)S(C)(=O)=O)[C@@H](O)[C@H]2O)c1-c1nc2c(C)nccc2s1` [Example 5063] and `Cc1nc(NCc2c(F)cc(F)cc2F)nc(N[C@@H]2C[C@H](C3(O)CC3)[C@@H](O)[C@H]2O)c1-c1nc2c(C)nccc2s1` [Example 5236] cannot be ordered by EC90: < 0.5 µM for the first, < 0.5 µM for the second.

First: Cc1nc(NC2COC3(CCCCC3)C2)nc(N[C@@H]2C[C@H](C(C)(C)O)[C@@H](O)[C@H]2O)c1-c1nc2c(C)nccc2s1 (some centres unmarked) [Example 5032]
Second: Cc1nc(NC2(CC(C)C)CC2)nc(N[C@@H]2C[C@H](C(C)(C)O)[C@@H](O)[C@H]2O)c1-c1nc2c(C)nccc2s1 [Example 5031]
The EC90 of the first is lower: < 0.5 µM for the first, 0.5 to 5 µM for the second.

First: Cc1nc(NC(C)C2CC(F)(F)C2)nc(N[C@@H]2C[C@H](CO)C(O)[C@H]2O)c1-c1nc2c(C3CC3)nccc2s1 (some centres unmarked) [Example 5300]
Second: Cc1nc(NC(C)C2CC(F)(F)C2)nc(N[C@@H]2C[C@H](CO)[C@@H](O)[C@H]2O)c1-c1nc2c(C3CC3)nccc2s1 (some centres unmarked) [Example 5305]
The EC90 of the first is lower: < 0.5 µM for the first, 0.5 to 5 µM for the second.

`Cc1nc(N)nc(N[C@@H]2C[C@H](C(C)(C)O)[C@@H](O)[C@H]2O)c1-c1nc2c(N)nccc2s1` [Example 5029] and `Cc1nc(N[C@@H](CO)CC(C)C)nc(N[C@@H]2C[C@H](C(C)(C)O)[C@@H](O)[C@H]2O)c1-c1nc2c(C)nccc2s1` [Example 5162] cannot be ordered by EC90: < 0.5 µM for the first, < 0.5 µM for the second.

`COCCNc1nc(C)c(-c2nc3c(C)nccc3s2)c(N[C@H]2CCC[C@@H]2O)n1` [Example 5155] and `Cc1nc(NCC(F)(F)F)nc(N[C@H]2CCC[C@@H]2O)c1-c1nc2c(C)nccc2s1` [Example 5154] cannot be ordered by EC90: < 0.5 µM for the first, < 0.5 µM for the second.

`Cc1nc(NCC2CC2)nc(N[C@@H]2C[C@H](NC(=O)NC(C)(C)C)[C@@H](O)[C@H]2O)c1-c1nc2c(C3CC3)nccc2s1` [Example 5088] and `Cc1nc(NCC(C)(C)C)nc(N[C@@H]2C[C@H](C(F)F)[C@@H](O)[C@H]2O)c1-c1nc2c(C3CC3)nccc2s1` [Example 5181] cannot be ordered by EC90: < 0.5 µM for the first, < 0.5 µM for the second.

`Cc1nc(NC(C)CCCC(C)(C)O)nc(N[C@@H]2C[C@H](C(C)(C)O)[C@@H](O)[C@H]2O)c1-c1nc2c(C)nccc2s1` (some centres unmarked) [Example 5163] and `COC[C@@H](C)Nc1nc(C)c(-c2nc3c(C)nccc3s2)c(N[C@@H]2C[C@H](CC(C)(C)O)[C@@H](O)[C@H]2O)n1` [Example 5310] cannot be ordered by EC90: < 0.5 µM for the first, < 0.5 µM for the second.

`COC[C@@H](C)Nc1nc(C)c(-c2nc3c(C)nccc3s2)c(N[C@@H]2C[C@H](C(C)C)[C@@H](O)[C@H]2O)n1` [Example 5283] and `Cc1nc(NCC2CC2)nc(N[C@@H]2C[C@H](C(C)C)[C@@H](O)[C@H]2O)c1-c1nc2c(C)nccc2s1` [Example 5284] cannot be ordered by EC90: < 0.5 µM for the first, < 0.5 µM for the second.

`Cc1cc(S(=O)(=O)C[C@H]2C[C@@H](Nc3nc(NCC(C)(C)C)nc(C)c3-c3nc4c(C)nccc4s3)[C@H](O)[C@@H]2O)ccc1F` [Example 5010] and `Cc1cc(S(=O)(=O)C[C@H]2C[C@@H](Nc3nc(NC4CC4)nc(C)c3-c3nc4c(C)nccc4s3)[C@H](O)[C@@H]2O)ccc1F` [Example 5002] cannot be ordered by EC90: < 0.5 µM for the first, < 0.5 µM for the second.

`CO[C@@H]1CCCC[C@H]1Nc1nc(C)c(-c2nc3c(C)nccc3s2)c(N[C@@H]2C[C@H](CO)[C@@H](O)[C@H]2O)n1` [Example 5139] and `Cc1nc(NC(C)C2CC(F)(F)C2)nc(N[C@@H]2C[C@H](CO)[C@@H](O)[C@H]2O)c1-c1nc2c(C)nccc2s1` (some centres unmarked) [Example 5291] cannot be ordered by EC90: < 0.5 µM for the first, < 0.5 µM for the second.

`CCOCCNc1nc(C)c(-c2nc3c(C)nccc3s2)c(N[C@@H]2C[C@H](C(O)(COC)COC)[C@@H](O)[C@H]2O)n1` [Example 5243] and `COCC(O)(COC)[C@H]1C[C@@H](Nc2nc(NCC3CC3)nc(C)c2-c2nc3c(C)nccc3s2)[C@H](O)[C@@H]1O` [Example 5246] cannot be ordered by EC90: < 0.5 µM for the first, < 0.5 µM for the second.

`CO[C@@H](CNc1nc(C)c(-c2nc3c(C)nccc3s2)c(N[C@@H]2C[C@H](C(C)(C)O)[C@@H](O)[C@H]2O)n1)c1ccc(F)cc1` [Example 5229] and `Cc1nc(NCC(F)(F)F)nc(N[C@@H]2C[C@H](C(C)(C)S(C)(=O)=O)[C@@H](O)[C@H]2O)c1-c1nc2c(C)nccc2s1` [Example 5078] cannot be ordered by EC90: < 0.5 µM for the first, < 0.5 µM for the second.

`Cc1nc(NC2CC2)nc(N[C@@H]2C[C@H](C(F)F)[C@@H](O)[C@H]2O)c1-c1nc2c(C3CC3)nccc2s1` [Example 5178] and `Cc1nc(NC2CCC2)nc(N[C@@H]2C[C@H](C(C)(C)S(C)(=O)=O)[C@@H](O)[C@H]2O)c1-c1nc2c(C)nccc2s1` [Example 5062] cannot be ordered by EC90: < 0.5 µM for the first, < 0.5 µM for the second.

`CCC(O)(CC)[C@H]1C[C@@H](Nc2nc(NCCSC(C)(C)C)nc(C)c2-c2nc3c(C)nccc3s2)[C@H](O)[C@@H]1O` [Example 5248] and `Cc1nc(NCC2(O)CC2)nc(N[C@@H]2C[C@H](C3(O)CCCC3)[C@@H](O)[C@H]2O)c1-c1nc2c(C)nccc2s1` [Example 5111] cannot be ordered by EC90: < 0.5 µM for the first, < 0.5 µM for the second.

`Cc1nc(NCc2c(F)cccc2F)nc(N[C@@H]2C[C@H](COc3c(F)cccc3F)[C@@H](O)[C@H]2O)c1-c1nc2c(C)nccc2s1` [Example 5206] and `Cc1nc(NCC(F)(F)C(F)(F)C(F)(F)F)nc(N[C@H]2CC[C@@H](CO)C2)c1-c1nc2c(C)nccc2s1` [Example 5166] cannot be ordered by EC90: < 0.5 µM for the first, < 0.5 µM for the second.
